# Test results as given in paper PMC9120017, “Inhibition mechanism of the chloride channel TMEM16A by the pore blocker 1PBC” (Nature Communications, 2022).
# pIC50: −log10 of the molar value. Where two headings read alike, the source gives them in different places.
# Biological target: T1, mouse TMEM16A mutant T518A (Mus musculus, UniProt Q8BHY3, T518A)
# T1 construct: expressed in transfected cells; host or cells: HEK293T
# T1 sequence (Q8BHY3 1-960 T518A): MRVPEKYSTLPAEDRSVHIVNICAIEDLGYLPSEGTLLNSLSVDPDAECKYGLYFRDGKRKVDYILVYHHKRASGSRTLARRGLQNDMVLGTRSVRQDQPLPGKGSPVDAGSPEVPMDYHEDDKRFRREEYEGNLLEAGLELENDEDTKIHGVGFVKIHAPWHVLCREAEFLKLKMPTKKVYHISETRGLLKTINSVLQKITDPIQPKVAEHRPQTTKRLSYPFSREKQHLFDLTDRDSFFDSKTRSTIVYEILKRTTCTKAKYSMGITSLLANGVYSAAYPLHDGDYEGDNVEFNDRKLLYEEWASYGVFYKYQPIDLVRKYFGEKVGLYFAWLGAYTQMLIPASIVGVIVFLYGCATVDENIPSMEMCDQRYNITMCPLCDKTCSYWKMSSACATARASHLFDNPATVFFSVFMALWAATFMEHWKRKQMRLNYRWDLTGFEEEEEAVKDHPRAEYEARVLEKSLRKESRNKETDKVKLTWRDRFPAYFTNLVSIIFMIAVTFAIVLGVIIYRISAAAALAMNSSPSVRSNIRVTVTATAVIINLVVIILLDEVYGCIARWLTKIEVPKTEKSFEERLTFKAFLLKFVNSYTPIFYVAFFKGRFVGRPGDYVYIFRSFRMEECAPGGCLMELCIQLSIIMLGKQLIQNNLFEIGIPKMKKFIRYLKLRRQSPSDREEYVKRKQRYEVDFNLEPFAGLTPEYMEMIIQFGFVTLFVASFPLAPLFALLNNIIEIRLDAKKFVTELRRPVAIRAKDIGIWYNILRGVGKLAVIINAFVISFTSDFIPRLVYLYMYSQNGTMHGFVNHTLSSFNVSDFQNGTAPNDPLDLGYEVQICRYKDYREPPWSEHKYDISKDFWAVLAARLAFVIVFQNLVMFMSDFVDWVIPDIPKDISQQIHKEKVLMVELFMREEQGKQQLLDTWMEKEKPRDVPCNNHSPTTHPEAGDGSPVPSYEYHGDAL
# Test: Inside-out patch recording of 1PBC block, mutant T518A
# Format: cell-based
# Details: for remaining activity at 1 µM: 1PBC 1; for remaining activity at 1 µM / remaining activity at 3 µM / remaining activity at 10 µM / remaining activity at 30 µM / remaining activity at 100 µM: read-out: fraction of unblocked current; for remaining activity at 3 µM: 1PBC 3; for remaining activity at 10 µM: 1PBC 10; for remaining activity at 30 µM: 1PBC 30; for remaining activity at 100 µM: 1PBC 100
# Method: HEK293T cells (ATCC CRL-1573) were maintained in Dulbecco’s modified Eagle’s medium (DMEM; Sigma-Aldrich) supplemented with 10 U ml^−1 penicillin, 0.1 mg ml^−1 streptomycin (Sigma-Aldrich), 2 mM L-glutamine (Sigma-Aldrich), and 10% FBS (Sigma-Aldrich) in a humidified atmosphere containing 5% CO2 at 37 °C. HEK293S GnTI^− cells (ATCC CRL-3022) were maintained in HyClone HyCell TransFx-H medium (GE Healthcare) supplemented with 10 U ml^−1 penicillin, 0.1 mg ml^−1 streptomycin, 4 mM L-glutamine, 0.15% poloxamer 188 (Sigma-Aldrich), and 1% FBS in an atmosphere containing 5% CO2 at 185 rpm at 37 °C. The ac splice variant of mouse TMEM16A (UniProt ID: Q8BHY3), mouse TMEM16B (UniProt ID: Q8CFW1), or mouse TMEM16F (UniProt ID: Q6P9J9) bearing a 3C cleavage site, a Venus YFP, a Myc tag, and a Streptavidin-binding peptide (SBP) downstream of the open reading frame in a modified pcDNA3.1 vector (Invitrogen) were used as described previously[21],[31]. Mutations were introduced using a modified QuikChange method[58] and were verified by sequencing.
# HEK293T cells were transfected with 3–4 μg DNA per 6 cm Petri dish using the calcium phosphate co-precipitation method and were used within 24–96 h after transfection. Recordings were performed on inside-out patches excised from HEK293T cells expressing the construct of interest. Patch pipettes were pulled from borosilicate glass capillaries (O.D. 1.5 mm, I.D. 0.86 mm, Sutter Instrument) and were fire-polished with a microforge (Narishige) before use. Pipette resistance was typically 3–8 MΩ when filled with the recording solutions detailed below. Seal resistance was typically 4 GΩ or higher. Voltage-clamp recordings were made using Axopatch 200B, Digidata 1550, and Clampex 10.7 (Molecular Devices). Analog signals were filtered with the in-built 4-pole Bessel filter at 10 kHz and were digitized at 20 kHz. Solution exchange was achieved using a gravity-fed system through a theta glass pipette mounted on an ultra-fast piezo-driven stepper (Siskiyou). […] All recordings were performed at 20 °C.
# A symmetrical ionic condition was used throughout. Stock solution with Ca^2+-EGTA contained 150 mM NaCl, 5.99 mM Ca(OH)2, 5 mM EGTA, and 10 mM HEPES at pH 7.40. Stock solution with EGTA contained 150 mM NaCl, 5 mM EGTA, and 10 mM HEPES at pH 7.40. Free Ca^2+ concentrations were adjusted by mixing the stock solutions at the required ratios calculated using the WEBMAXC program (http://web.stanford.edu/~cpatton/webmaxcS.htm). Patch pipettes were filled with the stock solution with Ca^2+-EGTA, which has a free Ca^2+ concentration of 1 mM. 1PBC (ChemBridge) stock was reconstituted in anhydrous DMSO (Sigma-Aldrich) at 100 mM and stored at −20 °C. Working solutions with 1PBC were prepared by serial dilution. Unless otherwise stated, experiments were performed at a saturating Ca^2+ concentration as shown in Supplementary Table 1 and the primary data were corrected for current rundown as described previously[21],[25].
# Concentration-response relations, obtained from the ratio of the I-V plots before and after the application of the blocker, were fitted to the Hill equation,1 I/Imax=1/1+IC50/[blocker]^h where I/Imax is the normalized current responses, IC50 defines the concentration at which inhibition is at its half-maximum, and h is the Hill coefficient.
structure (smiles),measurement,setting,value
N#Cc1c(C(F)(F)F)cc(O)n2c1nc1ccccc12 [1PBC],pIC50,"0 mV, 2 µM Ca2+",5.25
same,remaining activity at 1 µM,0 mV,82.6%
same,remaining activity at 1 µM,20 mV,78.8%
same,remaining activity at 1 µM,40 mV,75.1%
same,remaining activity at 1 µM,60 mV,71.9%
same,remaining activity at 1 µM,80 mV,70.2%
same,remaining activity at 1 µM,100 mV,70.4%
same,remaining activity at 1 µM,120 mV,72.2%
same,remaining activity at 1 µM,140 mV,76.4%
same,remaining activity at 1 µM,-20 mV,86.3%
same,remaining activity at 1 µM,-40 mV,90%
same,remaining activity at 1 µM,-60 mV,91.9%
same,remaining activity at 1 µM,-80 mV,93.5%
same,remaining activity at 1 µM,-100 mV,95.1%
same,remaining activity at 1 µM,-120 mV,96.6%
same,remaining activity at 1 µM,-140 mV,98%
same,remaining activity at 3 µM,0 mV,65.6%
same,remaining activity at 3 µM,20 mV,60.1%
same,remaining activity at 3 µM,40 mV,54.5%
same,remaining activity at 3 µM,60 mV,51%
same,remaining activity at 3 µM,80 mV,47.8%
same,remaining activity at 3 µM,100 mV,46.3%
same,remaining activity at 3 µM,120 mV,47.6%
same,remaining activity at 3 µM,140 mV,50.5%
same,remaining activity at 3 µM,-20 mV,71.2%
same,remaining activity at 3 µM,-40 mV,76.7%
same,remaining activity at 3 µM,-60 mV,81.4%
same,remaining activity at 3 µM,-80 mV,84.1%
same,remaining activity at 3 µM,-100 mV,87.3%
same,remaining activity at 3 µM,-120 mV,90.5%
same,remaining activity at 3 µM,-140 mV,92.2%
same,remaining activity at 10 µM,0 mV,36.7%
same,remaining activity at 10 µM,20 mV,31%
same,remaining activity at 10 µM,40 mV,26.8%
same,remaining activity at 10 µM,60 mV,24%
same,remaining activity at 10 µM,80 mV,22.2%
same,remaining activity at 10 µM,100 mV,21.1%
same,remaining activity at 10 µM,120 mV,21.2%
same,remaining activity at 10 µM,140 mV,22.5%
same,remaining activity at 10 µM,-20 mV,42.4%
same,remaining activity at 10 µM,-40 mV,48.9%
same,remaining activity at 10 µM,-60 mV,54.9%
same,remaining activity at 10 µM,-80 mV,59.5%
same,remaining activity at 10 µM,-100 mV,64.7%
same,remaining activity at 10 µM,-120 mV,68.5%
same,remaining activity at 10 µM,-140 mV,71.3%
same,remaining activity at 30 µM,0 mV,16.5%
same,remaining activity at 30 µM,20 mV,13.3%
same,remaining activity at 30 µM,40 mV,11.5%
same,remaining activity at 30 µM,60 mV,10.1%
same,remaining activity at 30 µM,80 mV,9.34%
same,remaining activity at 30 µM,100 mV,8.78%
same,remaining activity at 30 µM,120 mV,9.07%
same,remaining activity at 30 µM,140 mV,9.98%
same,remaining activity at 30 µM,-20 mV,19.7%
same,remaining activity at 30 µM,-40 mV,23%
same,remaining activity at 30 µM,-60 mV,27.8%
same,remaining activity at 30 µM,-80 mV,31.9%
same,remaining activity at 30 µM,-100 mV,35.9%
same,remaining activity at 30 µM,-120 mV,39.5%
same,remaining activity at 30 µM,-140 mV,43.5%
same,remaining activity at 100 µM,0 mV,6.52%
same,remaining activity at 100 µM,20 mV,4.86%
same,remaining activity at 100 µM,40 mV,3.97%
same,remaining activity at 100 µM,60 mV,3.5%
same,remaining activity at 100 µM,80 mV,3.13%
same,remaining activity at 100 µM,100 mV,2.74%
same,remaining activity at 100 µM,120 mV,2.48%
same,remaining activity at 100 µM,140 mV,2.4%
same,remaining activity at 100 µM,-20 mV,8.19%
same,remaining activity at 100 µM,-40 mV,9.29%
same,remaining activity at 100 µM,-60 mV,11.5%
same,remaining activity at 100 µM,-80 mV,13.7%
same,remaining activity at 100 µM,-100 mV,16.6%
same,remaining activity at 100 µM,-120 mV,18.8%
same,remaining activity at 100 µM,-140 mV,21.5%
same,pIC50,"20 mV, 2 µM Ca2+",5.36
same,pIC50,"40 mV, 2 µM Ca2+",5.46
same,pIC50,"60 mV, 2 µM Ca2+",5.52
same,log-fold IC50 (change of mutant vs WT),80 mV,0.1093
same,pIC50,"80 mV, 2 µM Ca2+",5.58
same,pIC50,"100 mV, 2 µM Ca2+",5.59
same,pIC50,"120 mV, 2 µM Ca2+",5.57
same,pIC50,"140 mV, 2 µM Ca2+",5.51
same,pIC50,"-20 mV, 2 µM Ca2+",5.14
same,pIC50,"-40 mV, 2 µM Ca2+",5.02
same,pIC50,"-60 mV, 2 µM Ca2+",4.91
same,pIC50,"-80 mV, 2 µM Ca2+",4.83
same,pIC50,"-100 mV, 2 µM Ca2+",4.74
same,pIC50,"-120 mV, 2 µM Ca2+",4.67
same,pIC50,"-140 mV, 2 µM Ca2+",4.60
same,pIC50,"T518A, V 0 mV",5.25
same,pIC50,"T518A, V 20 mV",5.36
same,pIC50,"T518A, V 40 mV",5.46
same,pIC50,"T518A, V 60 mV",5.52
same,pIC50,"T518A, V 80 mV",5.57
same,pIC50,"T518A, V 100 mV",5.59
same,pIC50,"T518A, V 120 mV",5.57
same,pIC50,"T518A, V 140 mV",5.51
same,pIC50,"T518A, V -20 mV",5.14
same,pIC50,"T518A, V -40 mV",5.02
same,pIC50,"T518A, V -60 mV",4.91
same,pIC50,"T518A, V -80 mV",4.83
same,pIC50,"T518A, V -100 mV",4.74
same,pIC50,"T518A, V -120 mV",4.67
same,pIC50,"T518A, V -140 mV",4.60
